Test in all cases: In vitro antifungal activity, microbroth dilution MIC
What all share (format): cell-based
On the technique in general: In broth dilution the organism is exposed to a series of concentrations in liquid medium.

The subject of experiment [1] is Candida albicans A. 10231. Conditions: 4 to 48 hours; for Minimal inhibitory concentration(MIC), C. albicans A. 10231: RPMI-1640, 35° C., no growth observed. The method, boiled down:
(§1)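 Broth microdilution adapted from NCCLS M27, in RPMI-1640 with 0.165 M MOPS, pH 7.0. Yeast or mould inoculum at 2×10^3 CFU/ml was mixed 1:1 with DMSO-derived compound solutions (200 to 0.10 μg/ml before mixing) and incubated at 35 °C for 4 to 48 h. MIC was the concentration showing no growth.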

In experiment [2] the test system is Aspergillus niger A. 16404. Conditions: for Minimal inhibitory concentration(MIC), A. niger A. 16404: RPMI-1640, 35° C., no growth observed. The method, boiled down:
as §1

Experiment [3] has as its system Cryptococcus neoformans B. 42419. Conditions: 4 to 48 hours; for Minimal inhibitory concentration(MIC), Cry. neoformans B. 42419: RPMI-1640, 35° C., no growth observed. The method, boiled down: as §1
The subject of experiment [4] is Candida albicans C1-2. As to conditions: 4 to 48 hours; for Minimal inhibitory concentration(MIC), C. albicans C1-2: RPMI-1640, 35° C., no growth observed. The method, boiled down: as §1
Experiment [5] deals with Candida tropicalis A. 13803. As to conditions: 4 to 48 hours; for Minimal inhibitory concentration(MIC), C. tropicalis A. 13803: RPMI-1640, 35° C., no growth observed. The method, boiled down: as §1
In experiment [6] the test system is Aspergillus furnigatus B. 19119. As to conditions: for Minimal inhibitory concentration(MIC), A furnigatus B. 19119: RPMI-1640, 35° C., no growth observed. The method, boiled down:
as §1

The test system of experiment [7] is Trichophyton mentagrophytes B. 32663. Conditions: for Minimal inhibitory concentration(MIC), T. mentagrophytes B. 32663: RPMI-1640, 35° C., no growth observed. The method, boiled down: as §1
Experiment [8] deals with Cryptococcus neoformans IFM. 40092. As to conditions: for Minimal inhibitory concentration(MIC), Cry. neoformans IFM. 40092: RPMI-1640, 35° C., no growth observed. The method, boiled down: as §1
Experiment [9] has as its system Torulopsis glabrata B. 16205. As to conditions: 4 to 48 hours; for Minimal inhibitory concentration(MIC), T. glabrata B. 16205: RPMI-1640, 35° C., no growth observed. The method, boiled down:
as §1

The test system of experiment [10] is Cryptococcus neoformans A. 34144. Conditions: for Minimal inhibitory concentration(MIC), Cry. neoformans A. 34144: RPMI-1640, 35° C., no growth observed. The method, boiled down: as §1
The test system of experiment [11] is Candida krusei K. 11655. Conditions: 4 to 48 hours; for Minimal inhibitory concentration(MIC), C. krusei K. 11655: RPMI-1640, 35° C., no growth observed. The method, boiled down: as §1
For experiment [12], the system named is Candida albicans IFO. 1385. Conditions: 4 to 48 hours; for Minimal inhibitory concentration(MIC), C. albicans IFO. 1385: RPMI-1640, 35° C., no growth observed. The method, boiled down: as §1
Experiment [13] deals with Candida parapsitosis A. 7330. As to conditions: 4 to 48 hours; for Minimal inhibitory concentration(MIC), C. parapsitosis A. 7330: RPMI-1640, 35° C., no growth observed. The method, boiled down: as §1
Experiment [14] deals with Trichophyton mentagrophytes A. 9129. As to conditions: for Minimal inhibitory concentration(MIC), T. mentagrophytes A. 9129: RPMI-1640, 35° C., no growth observed. The method, boiled down: as §1
For experiment [15], the system named is Candida pseudotropicalis K. 11658. Conditions: 4 to 48 hours; for Minimal inhibitory concentration(MIC), C. pseudotropicalis K. 11658: RPMI-1640, 35° C., no growth observed. The method, boiled down:
as §1

Molecules are shown by their SMILES. Values after ≈ are worked out from the molar mass of the structure shown. A value given as a limit tells only on which side of the number the result lay.

With `FC(=C(c1cc(Cl)cc(Cl)c1)C(F)(F)F)N1CCN(c2ccc(OCC3COC(Cn4ccnc4)(c4ccc(F)cc4F)O3)cc2)CC1` (mixture of isomers) [Ex. 150], the “Minimal inhibitory concentration(MIC), C. albicans A. 10231” value in experiment [1] is greater than 100 µg/mL. For the same compound, the “Minimal inhibitory concentration(MIC), A. niger A. 16404” value in [2] amounted to 100 µg/mL. Further, in experiment [3], the “Minimal inhibitory concentration(MIC), Cry. neoformans B. 42419” value is 0.39 µg/mL. The “Minimal inhibitory concentration(MIC), C. albicans C1-2” value in [4] was greater than 100 µg/mL. The “Minimal inhibitory concentration(MIC), C. tropicalis A. 13803” value in experiment [5] is greater than 100 µg/mL. In experiment [6], the “Minimal inhibitory concentration(MIC), A furnigatus B. 19119” value was 12.5 µg/mL. Moreover, the “Minimal inhibitory concentration(MIC), T. mentagrophytes B. 32663” value in [7] was “≦0.10 μg/ml”. For the same compound, the “Minimal inhibitory concentration(MIC), Cry. neoformans IFM. 40092” value in experiment [8] is “≦0.10 μg/ml”. The “Minimal inhibitory concentration(MIC), T. glabrata B. 16205” value in [9] was 50.0 µg/mL. The “Minimal inhibitory concentration(MIC), Cry. neoformans A. 34144” value in experiment [10] is 1.56 µg/mL. The “Minimal inhibitory concentration(MIC), C. krusei K. 11655” value in [11] stood at 0.78 µg/mL. In addition, the “Minimal inhibitory concentration(MIC), C. albicans IFO. 1385” value in experiment [12] is 0.39 µg/mL. In addition, the “Minimal inhibitory concentration(MIC), C. parapsitosis A. 7330” value in experiment [13] was 1.56 µg/mL. Moreover, the “Minimal inhibitory concentration(MIC), T. mentagrophytes A. 9129” value in [14] was determined as 3.13 µg/mL. Further, in [15], the “Minimal inhibitory concentration(MIC), C. pseudotropicalis K. 11658” value came to 0.78 µg/mL.
Turning to `FC(=C(c1ccccc1)C(F)(F)F)N1CCN(c2ccc(OCC3COC(Cn4ccnc4)(c4ccc(Cl)cc4Cl)O3)cc2)CC1` (mixture of isomers) [Ex. 124], the “Minimal inhibitory concentration(MIC), C. albicans A. 10231” value in experiment [1] was 50.0 µg/mL. Also, the “Minimal inhibitory concentration(MIC), A. niger A. 16404” value in [2] (4 to 48 hours) is greater than 100 µg/mL. The “Minimal inhibitory concentration(MIC), Cry. neoformans B. 42419” value in [3] turned out to be 1.56 µg/mL. In [4], the “Minimal inhibitory concentration(MIC), C. albicans C1-2” value stood at 25.0 µg/mL. Also, the “Minimal inhibitory concentration(MIC), C. tropicalis A. 13803” value in [5] was greater than 100 µg/mL. The “Minimal inhibitory concentration(MIC), A furnigatus B. 19119” value in [6] (4 to 48 hours) was greater than 100 µg/mL. Moreover, the “Minimal inhibitory concentration(MIC), T. mentagrophytes B. 32663” value in experiment [7] (4 to 48 hours) came to 3.13 µg/mL. In addition, in [8] (4 to 48 hours), the “Minimal inhibitory concentration(MIC), Cry. neoformans IFM. 40092” value is 0.39 µg/mL. For the same compound, in experiment [9], the “Minimal inhibitory concentration(MIC), T. glabrata B. 16205” value was determined as 50.0 µg/mL. In addition, in experiment [10] (4 to 48 hours), the “Minimal inhibitory concentration(MIC), Cry. neoformans A. 34144” value turned out to be 1.56 µg/mL. Moreover, the “Minimal inhibitory concentration(MIC), C. krusei K. 11655” value in experiment [11] is greater than 100 µg/mL. The “Minimal inhibitory concentration(MIC), C. albicans IFO. 1385” value in experiment [12] came out at 1.56 µg/mL. Further, in experiment [13], the “Minimal inhibitory concentration(MIC), C. parapsitosis A. 7330” value is greater than 100 µg/mL. For the same compound, the “Minimal inhibitory concentration(MIC), T. mentagrophytes A. 9129” value in experiment [14] (4 to 48 hours) was 6.25 µg/mL. Besides, the “Minimal inhibitory concentration(MIC), C. pseudotropicalis K. 11658” value in experiment [15] was greater than 100 µg/mL.
With `Cc1ccc(C=C(F)OCC2COC(Cn3ccnc3)(c3ccc(Cl)cc3Cl)O2)cc1C` (stereo not drawn) [Ex. 5], the “Minimal inhibitory concentration (MIC)” value in [1] (C. albicans A. 10231, RPMI-1640, 35° C.) came to 12.5 µg/mL (≈ 26.2 µM); in [2] (A. niger A. 16404, RPMI-1640, 35° C., 4 to 48 hours), 6.25 µg/mL (≈ 13.1 µM); in experiment [3] (Cry. neoformans B. 42419, RPMI-1640, 35° C.), 3.13 µg/mL (≈ 6.56 µM); in [4] (C. albicans C1-2, RPMI-1640, 35° C.) it was 12.5 µg/mL (≈ 26.2 µM); in experiment [5] (C. tropicalis A. 13803, RPMI-1640, 35° C.) it was 12.5 µg/mL (≈ 26.2 µM); in [6] (A furnigatus B. 19119, RPMI-1640, 35° C., 4 to 48 hours) it was 6.25 µg/mL (≈ 13.1 µM). In addition, the “Minimal inhibitory concentration (MIC)” value in experiment [7] (T. mentagrophytes B. 32663, RPMI-1640, 35° C., 4 to 48 hours) was 3.13 µg/mL (≈ 6.56 µM); in experiment [8] (Cry. neoformans IFM. 40092, RPMI-1640, 35° C., 4 to 48 hours), 1.56 µg/mL (≈ 3.27 µM); in experiment [9] (T. glabrata B. 16205, RPMI-1640, 35° C.), 6.25 µg/mL (≈ 13.1 µM); in [10] (Cry. neoformans A. 34144, RPMI-1640, 35° C., 4 to 48 hours) it was 3.13 µg/mL (≈ 6.56 µM); in [11] (C. krusei K. 11655, RPMI-1640, 35° C.), 12.5 µg/mL (≈ 26.2 µM); in [12] (C. albicans IFO. 1385, RPMI-1640, 35° C.), 0.78 µg/mL (≈ 1.63 µM). In addition, the “Minimal inhibitory concentration (MIC)” value in experiment [13] (C. parapsitosis A. 7330, RPMI-1640, 35° C.) stood at 12.5 µg/mL (≈ 26.2 µM); in experiment [14] (T. mentagrophytes A. 9129, RPMI-1640, 35° C., 4 to 48 hours), 3.13 µg/mL (≈ 6.56 µM); in experiment [15] (C. pseudotropicalis K. 11658, RPMI-1640, 35° C.) it was 12.5 µg/mL (≈ 26.2 µM).

The values above are taken from patent publication US6376497B1, “Antifungal azole derivatives having a fluorinated vinyl group and process for preparing same” (Korea Research Institute of Chemical Technology, priority 1999, dated 2002).
